Test results as given in article PMC11032351, “Epigenetic modulation through BET bromodomain inhibitors as a novel therapeutic strategy for progranulin-deficient frontotemporal dementia” (Scientific Reports, 2024).
Where two headings read alike, the source gives them in different places.

What was measured:
[1] = Pharmacokinetics in CD-1 mice, IV; type: in vivo; settings: for Auclast / Cmax / MRT inf / Tmax / half-life / AUC(0-t) / clearance / Vd: intravenously 5 mg/kg; for blood–brain barrier crossing (in words) / clearance (in words): IV 5 mg/kg; for Cmax / MRT inf / Tmax / half-life / AUC(0-t) / clearance / Vd: male, mouse, iv; for half-life: read-out: Terminal t1/2; for Vd: read-out: Vss
Method: Analysis of pharmacokinetic parameters of 18A and 18B was performed by the Preclinical Pharmacology Core Lab (UT Southwestern Medical Center). Animal work described in this manuscript has been approved and conducted under the oversight of the UT Southwestern Institutional Animal Care and Use Committee and were carried out in accordance with relevant guidelines and regulations. UT Southwestern uses the “Guide for the Care and Use of Laboratory Animals” when establishing animal research standards. All methods are reported in accordance with ARRIVE guidelines. Compounds were suspended in 10% DMSO/20% PEG400/70% (30% HPβCD in water) at 0.484 mg/mL (18A) or at 0.5 mg/mL (18B). Compounds were administered to male CD1 mice (Charles River Laboratories, Wilmington, MA) IV via the tail vein at 5 mg/kg (0.30 mL dose volume for 18A, 0.35 mL dose volume for 18B). Mice were randomly assigned to time point groups and all investigators were aware of these assignments. After inhalation overdose of CO2, blood and tissues were collected from three mice per timepoint, at 5, 15, 30, 60, 240, 360, and 480 min post dosing, such that a mean concentration and standard deviation about the mean could be reported. Blood and tissues were also collected from mice dosed with Vehicle only at 480 min. Blood was collected using the anticoagulant ACD (acidified citrate dextrose) and plasma was isolated from the blood by centrifugation at 4 °C, 9600 × g for 10 min. After rinsing with PBS, tissues were weighed, snap-frozen in liquid nitrogen and stored at − 80 °C until processing. Brain was homogenized in a three-fold volume of PBS (weight by volume). Plasma and brain homogenates were extracted using a two-fold volume of methanol containing 0.15% formic acid and 37.5 ng/ml of an internal standard, n-benzylbenzamide (Sigma, St. Louis, MO). Samples were vortexed for 15 s, incubated at RT for 10 min and then centrifuged at 16,100 × g for 5 min at 4 °C. The supernatant was spun a second time and then analyzed by LC–MS/MS using a Sciex (Framingham, MA) 4000QTRAP® (positive ESI, multiple-reaction monitoring mode) after separation on an Agilent (Santa Clara, CA) C18 XDB column (5 micron packing, 50 × 4.6 mm size). The following separation gradient was used (Buffer A: water with 0.1% formic acid; Buffer B: MeOH with 0.1% formic acid): 0–1 min 5% B, 1–1.5 min gradient to 100% B, 1.5–3 min 100% B, 3–3.2 min gradient to 5% B, 3.2–4.5 min 5% B. For 18A, the transition (m/z) of 336.0/305.0 was monitored (retention time: 2.08 min); for 18B, the transition (m/z) of 336.1/169.0 was monitored (retention time: 2.09 min). The transition 212.1/91.1 (retention time 2.05 min) was monitored for the internal standard, n-benzylbenzamide. Tissues and plasma from untreated mice were used as controls to establish background noise for LC–MS/MS analysis of compound levels. Pharmacokinetic parameters were calculated using sparse sampling and the noncompartmental analysis tool in WinNonlin (Certara Corp, Princeton, NJ) for plasma and brain. Because mice were not perfused prior to collection of brain, the amount of compound estimated to be in the vasculature of the brain was subtracted using the measured plasma concentration and literature values for the volume of residual blood (30 µl/g tissue) in the brain Kwon[102].

recombinant BRD4 BD1 = biological target: recombinant BRD4 BD1; set-up: method as in PMID 31969702, PMID 32193360, doi:10.1002/anse.202200020; settings: read-out: KD against recombinant BRD4 BD1; cited from earlier work
PGRN protein levels = assay: PGRN quantification (Jess) in GRN R493X/+ NPCs; type: cell-based, human; settings: 24 h
Method: PGRN capillary gel electrophoresis experiments were performed using Jess (Bio-Techne) and data were processed and analyzed using Compass for Simple Western software (version 6.0). Runs were conducted using EZ Standard Pack 1 12–230 kDa (Bio-Techne PS-ST01EZ-8), 12–230 kDa pre-filled plates (PS-PP03), 12–230 kDa separation module (SMW004), anti-rabbit HRP detection (DM-001), RePlex (RP-001), and total protein detection modules (DM-TP01, biotin labeling reagent 042-973) according to the manufacturer’s instructions, and with anti-PGRN primary (Abcam ab208777) diluted 1:50 in milk-free antibody dilution buffer (043–524). The following run settings were used for each experiment: separation time: 25 min, separation voltage: 375 V, RePlex purge time: 30 min, biotin labeling time: 30 min, antibody diluent time: 5 min, primary antibody time: 30 min, secondary antibody time: 30 min, total protein HRP time: 30 min. All intensity quantifications are normalized to the total protein assay quantification unless otherwise indicated.
For GRN^R493^X/+ NPCs, cells were grown to confluency in 6-well plates according to the above NPC culturing procedure. To each well was directly added 2 µL of 100 µM panobinostat, […], or DMSO only to produce final in-well concentrations of 100 nM or 1 µM, respectively (0.1% DMSO final concentration). […]

SMILES | Auclast ([1]; Brain) | blood–brain barrier crossing (in words) [1] | clearance (in words) [1] | Cmax ([1]; Brain) | MRT inf ([1]; Brain) | Tmax ([1]; Brain) | half-life ([1]; Brain) | AUC(0-t) ([1]; Plasma) | Cmax ([1]; Plasma) | MRT inf ([1]; Plasma) | Tmax ([1]; Plasma) | clearance ([1]; Plasma) | half-life ([1]; Plasma) | Vd ([1]; Plasma) | Kd (recombinant BRD4 BD1) | PGRN protein levels (PGRN protein levels)
Cn1ccc2c(-c3cccnc3Oc3ccc(F)cc3)c[nH]c2c1=O [Compound 18B, 3-[2-(4-fluorophenoxy)pyridin-3-yl]-6-methyl-1,6-dihydro-7H-pyrrolo[2,3-c]pyridin-7-one] | 31579 ng·min/g | readily cross the blood–brain barrier | cleared quite rapidly | 1690 ng/g | 17.6 min | 5 min | 73 min | 511 ng·h/mL | 1620 ng/mL | 25.8 min | 5 min | 5.61 mL/min | 140 min | 0.145 L | – | –
Cn1cc(-c2cccnc2Oc2ccc(F)cc2)c2cc[nH]c2c1=O [Compound 18A, 4-(2-(4-fluorophenoxy)pyridin-3-yl)-6-methyl-1H-pyrrolo[2,3-c]pyridin-7(6H)-one] | 63285 ng·min/g | readily cross the blood–brain barrier | cleared quite rapidly | 2970 ng/g | 16.7 min | 5 min | 30 min | 658 ng·h/mL | 1780 ng/mL | 17.9 min | 5 min | 3.67 mL/min | 27 min | 0.067 L | – | –
CCS(=O)(=O)Nc1ccc(Oc2ccc(F)cc2F)c(-c2cn(C)c(=O)c3[nH]ccc23)c1 [mivebresib] | – | – | – | – | – | – | – | – | – | – | – | – | – | – | ≤ 2.8 nM | significantly increased PGRN protein levels
